Columns and labels:
ung−/− MEF cells = assay: Viability assay of MEF cells (AlamarBlue); assay type: cell-based, mouse; details: 0-1000 nM 5FdUR, 4 days, AlamarBlue fluorescence normalized to untreated
Method: (§1) Wild type and ung^(−/−) MEF cells were seeded onto 96-well plates in DMEM+F12 HAM Mix (Sigma) supplemented with 10% Fetal Bovine Serum (Gibco), 1% Penicillin+Streptomycin (Gibco), 0.5 mM Sodium Pyruvate (Gibco), 1% 100× Non-Essential Amino Acids (Gibco). 2000 cells were seeded in a well containing 100 μl medium. After 4 days 10 μl AlamarBlue (Biosource) was added, incubated for 3 hours at 37° C. and fluorescence was measured by Victor2 140 Multilabel counter at 485 nm excitation and 530 nm emission. Samples in triplicates were treated with different concentration of 5FdUR (0, 1, 10, 20, 50, 100, 250, 500, 1000 nM) and viability was assessed. Measurements were repeated three-times. Fluorescence intensity values measured from the wells was normalized to the intensity detected in samples grown in lack of 5FdUR.

wild type MEF cells = assay: Viability assay of MEF cells (AlamarBlue); assay type: cell-based, mouse; details: 0-1000 nM 5FdUR, 4 days, AlamarBlue fluorescence normalized to untreated
Method: as §1

[1] = test system: BL21(DE3)ung-151 E. coli cells; assay: Uracil content of E. coli genomial DNA by real-time PCR with Pfu WT-pol and Pfu V93Q-pol; assay type: cell-based, Escherichia coli; details: early log phase (OD600=0.5), mean ± SEM, untreated 537±37
Method: Escherichia coli genomial DNA. XL1-blue, BL21(DE3)ung-151 and CJ236 E. coli strains were propagated in LB media at 37° C. and were harvested at the early log phase (OD600=0.5) or at saturated phase (overnight culture). BL21(DE3)ung-151 cells grown in the presence of 30.7 or 61.3 μM 5-fluoro-2′-deoxyuridine (5FdUR) (Sigma-Aldrich) were harvested at the early log phase. Genomial DNA was purified by MasterPure DNA Purification Kit (Epicentre) following the instructions of the manufacturer. The DNA was digested by NdeI restriction enzyme (New England Biolabs) and was separated on 1% agarose gel. […]
(§2) Synthetic and physiological samples purified from agarose gels were applied in series of either 2-fold or 10-fold dilution steps. […] Melting point of the products was measured after a final denaturation at 95° C. for 1 min by heating from 55° C. to 95° C. […] Non-template control was measured in all cases. […] Cq values were determined after the manual setting of threshold level in the early exponential phase of the PCR amplification. […] Efficiency was calculated from the following equation: E=10^(−1/M)−1, where M is the slope of the linear curve and E is the efficiency. […] At each measured CqWt value the shift between the linear curves of the reference and the putatively uracil containing samples was determined. […]

[2] = test system: wild-type mouse embryonic fibroblast (MEF) cells; assay: Uracil content of MEF genomial DNA by real-time PCR with Pfu WT-pol and Pfu V93Q-pol; assay type: cell-based; details: 100 μM 5FdUR, 4 days, mean ± SEM, practically undetectable
Method: (§3) Mouse Embryonic Fibroblast (MEF) genomial DNA. Wild type and ung^(−/−) MEF cells (34) were a generous gift from Dr. Hilde Nilsen, University of Oslo. MEF cells were cultured in DMEM+F12 HAM Mix (Sigma) supplemented with 10% Fetal Bovine Serum (Gibco), 1% Penicillin+Streptomycin (Gibco), 0.5 mM Sodium Pyruvate (Gibco), 1% 100× Non-Essential Amino Acids (Gibco). To obtain confluent cells 10^6 cells/T-75 flask were seeded. […] Genomial DNA was purified by MasterPure DNA Purification Kit (Epicentre). DNA was digested by EcoRI restriction enzyme (New England Biolabs) and separated on 1% agarose gel. […]
as §2

[3] = test system: ung−/− mouse embryonic fibroblast (MEF) cells; assay: as above; assay type: cell-based; details: 100 μM 5FdUR, 4 days, mean ± SEM
Method: as §3, §2

O=c1[nH]c(=O)n([C@H]2C[C@H](O)[C@@H](CO)O2)cc1F [5FdUR, 5-fluoro-2′-deoxyuridine]
viability (ung−/− MEF cells): significant decrease in viability | viability (wild type MEF cells): significant decrease in viability | uracil content of genomial DNA ([1]; 30.7 μM 5FdUR): 653±55 deoxyuridine/million dNMP | uracil content of genomial DNA ([1]; 61.3 μM 5FdUR): 770±54 deoxyuridine/million dNMP | uracil content of genomial DNA [2]: 40±38 deoxyuridine/million dNMP | uracil content of genomial DNA [3]: 341±87 deoxyuridine/million dNMP
